Measured values reported in patent US20170189376A1, “BUTYROYLOXYMETHYL DIETHYL PHOSPHATE COMPOUNDS AND USES THEREOF” (MOR RESEARCH APPLICATIONS LTD., priority 2016, published 2017).

Assays:
[1] = test system: γH2AX foci in Hut78 cells; experiment: γH2AX nuclear foci immunofluorescence, Hut78 cells; type: cell-based, homo sapiens; conditions: Hut78, 24 h-72 h after treatment, relative to 3 h
Description: MyLa or Hut78 cells were treated with drugs, washed, incubated for interval time, and then 2×10^5cells/m1 were centrifuged with cyto-slides (CytoSlide, Shandon, Thermo, Ma, USA) in CYTOSPIN 4 (Shandon, Thermo scientific, West Palm Beach, USA) for 5 min 1000 rpm. Slides were washed with cold PBS on ice, pre-extracted with cold PBS-NP40-0.2% for 10 min, washed 3 times with cold PBS, fixed with 4% Paraformaldehyde for 10 min at RT, and washed 3 times with PBS. Slides were incubated with anti γ-H2AX, Bethyl A300-081A 1:1000, for 1.5 h in RT, washed twice in PBS-T (0.05% Tween in PBS) and once with PBS, incubated with Donkey anti rabbit IgG Alexa Fluor A-21206 1:700, for 30 min at RT, washed 3 times with PBS, dried gently, covered with 1 drop of Fluorescent mounting medium with DAPI (GBI-labs, WA, USA) and on top with cover glass. Slides were visualized in a light microscope (Olympus BX52, Tokyo, Japan). Foci analysis was performed using ImageJ software and PZfociEZ plugin. % of cells with >5 foci/cell was considered as damaged cells. % of repaired damage was calculated as follows: (% of cells with >5 foci/cell at 3 h)−(% of cells with >5 foci/cell at indicated time)/(% of cells with >5 foci/cell at 3 h). At least a total of 150 cells were measured per time-point.

MyLa cells [2] = experiment: Alkaline comet assay, MyLa cells; type: cell-based, human; conditions: 96 h after treatment, relative to 24 h
Description: (§1) Comet assay using the Trevigen Comet assay kit (Trevigen Inc., Gaithersburg, Md., USA) was done according to the manufacturer's protocol. MyLa or Hut78 cells were treated with drugs, washed, incubated for interval time, washed in PBS, counted and suspended in PBS. 1 ×10^5 cells/ml were incubated with pre-heated low melting agarose for 20 min in 37° C., loaded on a comet-slide and kept in the dark for 30 min at 4° C., in cold lysis solution for another 20 min, and finally for 20 min with unwinding solution in RT. The slides were run with cold fresh alkaline electrophoresis buffer in the COMET-20 electrophoresis system (Scie-Plas, Harvard apparatus, UK) for 20 min in 21 volts, 4° C. Slides were stirred gently and washed twice in dH20 bath for 5 min and in 70% ethanol for 5 min. […] The cells were scored under fluorescence microscope (Nikon eclipse 55i, Tokyo, Japan) at a magnification ×10. Cell scores were analyzed using the software “Comet Assay IV” (perceptive instruments, UK). […] 24h after treating the cells the mean tail moment reaches its maximal level, therefore the percent of repaired damage was calculated as follows: (mean tail moment at 24h)−(mean tail moment at indicated time)/mean tail moment at 24 h. At least a total of 100 cells were measured per time-point. […]

Hut78 cells [3] = experiment: MTT-based viability assay, Hut78 cells; conditions: Homo sapiens, HuT78, 72 h, read-out: IC50 single treatment Dox
Description: (§4) MyLa cells (10^4), Hut78 cells (5×10^3), SPBL and NPBL (10^5) were seeded in triplicate in 96-well plates. The PBL were activated with PHA 40 μg/10^6 cell for 24 h before the experiment. […] The cells were then placed in a humidified incubator for 72 h. […] The MTT reagent was added to a final concentration of 0.5 mg/mL, and the cells were incubated for an additional 4 h. Thereafter, 0.1N HCl in isopropanol was added, and cell viability was determined using an ELISA reader (PowerWaveX, BioTek, Winooski, Vt., USA) at a 570 nm wavelength with background subtraction at 630-690 nM.
(§5) Viability and apoptosis curves were based on the averages of at least 3 independent experiments. The standard error (SE) was calculated for each group as follows: SE=standard deviation/√n, where n is number of values in the group. […] Significant differences in selectivity among groups were analyzed by comparing the IC50 values using two-tailed unpaired t-test using Excel or by comparing the differential effects for all the dose response titrations using ANOVA with repeated measures.

Hut78 cells [4] = experiment: Alkaline comet assay, Hut78 cells; type: cell-based, homo sapiens; conditions: Hut78, 72 h after treatment, relative to 24 h
Description: as §1

NPBL = experiment: MTT-based viability assay, normal PBL (NPBL)
Description: (§6) Peripheral blood was diluted 1:3 in sterile phosphate-buffered saline (PBS). Lymphoprep was added in the same blood volume with a Pasteur pipette, and the sample was centrifuged. PBL were collected from the white median interphase, rinsed twice with PBS, and suspended in RPMI medium with 10 mM HEPES to 2×10^6 cells/mL.
as §4, §5
(§7) NPBL were treated at same molar ratio as SPBL.

[5] = test system: Sezary syndrome Peripheral blood lymphocytes SPBL; experiment: MTT-based viability assay, Sezary PBL (SPBL); conditions: Homo sapiens, Lymphocyte, 72 h, read-out: IC50 single treatment Dox
Description: as §6, §4, §5, §7

MyLa cells [6] = experiment: MTT-based viability assay, MyLa cells; conditions: Homo sapiens, 72 h
Description: as §4, §5

[7] = test system: p-KAP1, γH2AX in MyLa cells; experiment: Western blot of p-KAP1 and γH2AX, MyLa cells; type: cell-based, human; conditions: 1 mM AN-7 2 h, 1 μM Dox 1 h, or AN-7 1 h followed with Dox 1 h
Description: Cell fraction—3×10^6cells were suspended in 100 μl hypotonic buffer (HEPES 10 mM, KCl 5 mM, MgCl2 1.5 mM, DTT 1 mM, NP-40 1%), incubated for 15 min in ice, centrifuged and the supernatant fraction was subjected to western blot of pKAP1 and actin. The sediment was washed once with hypotonic buffer followed by suspension in 100 μl of hypertonic buffer (HEPES 10 mM, NaCl 500 mM, MgCl2 1.5 mM, DTT 1 mM, NP-40 1%), incubated for 15 min in ice, centrifuged, supernatant was removed and the sediment was boiled, vortexed for 10 min at 95° C. with sample buffer ×3 for 3 times and subjected to western blot of γH2AX.
(§2) Whole cells extract—Cells were suspended in lysis buffer (Tris-HCl 50 mM, NaCl 150 mM, NP-40 0.5%), incubated for lh on ice, centrifuged and the supernatant was collected. Protease and Phosphatase inhibitors were added to all buffers at a 1:100 dilutions. […] Bands were visualized by Odyssey Infrared Imaging System and the bands intense were normalized to actin.
Next, cells were fractionated and fraction lysate were subjected to western blot of phosphorylated KAP1 (p-KAP1), γH2AX and actin.

[8] = test system: NBS1, Rad51, Mre11, DNA-PK, Ku70 in MyLa cells; experiment: Western blot of DSB repair proteins, MyLa cells; type: cell-based, human; conditions: 24 and 48 h post treatment
Description: as §2
(§3) To address whether AN-7 interfere in DSBs repair by regulating the expression of DSBs repair proteins, Immunoblot was applied for those proteins. MyLa and Hut78 cells were treated as previously described and subjected to western blot of DSBs repair proteins.

[9] = test system: NBS1, Rad51, Mre11, DNA-PK, Ku70 in Hut78 cells; experiment: Western blot of DSB repair proteins, Hut78 cells; type: cell-based, homo sapiens; conditions: Hut78, 18 and 24 h post treatment
Description: as §2, §3

MyLa cells [10] = experiment: cells; type: cell-based, human; conditions: Homo sapiens
Hut78 cells [11] = experiment: FACS analysis with annexin V and PI staining (apoptosis), Hut78 cells; conditions: Hut78; SAHA 10 μM or AN-7 300 μM
Description: (§8) The cells (2.5×10^6 cells/mL) were washed in PBS and binding buffer and were resuspended in binding buffer, and of fluorescein isothiocyanate-conjugated annexin V (5 μL) was added to a 100 μL cell suspension for 10-15 min. Incubation was performed at room temperature under light-protected conditions. The cells were then washed in binding buffer and were resuspended in the binding buffer and propidium iodide (PI) (5 μL) was added. The samples were analyzed by flow cytometry (FACS Calibur 4.1.6, Becton Dickinson): fluorescein-labeled annexin V at a 530 nm wavelength, and PI at a 585 nm wavelength. The percentage of cells was calculated by their distribution in a fluorescence dot plot generated with FCS Express 4 software (De Novo Software, Los Angeles, Calif., USA). Early (annexin V-positive) and late (annexin V+PI-positive) apoptotic cells were summed to yield the total number of apoptotic cells.

[12] = test system: caspase 3, PARP, P21 and Bax in MF/SS cell lines; experiment: Western blot of pro-apoptotic proteins in MF/SS cell lines; type: cell-based, human; conditions: MyLa and Hut78, SAHA 10 μM or AN-7 300 μM
Excerpt: However, there was a stronger signal in response to SAHA.

HDAC1 = experiment: Western blot of HDAC1 protein expression in MF/SS cell lines; type: cell-based, human; conditions: MyLa and Hut78, SAHA 10 μM or AN-7 300 μM
Acetylated H3 = experiment: Western blot of acetylated H3 in nuclear lysate of MF/SS cell lines; conditions: MyLa and Hut78, SAHA 10 μM or AN-7 300 μM
Description: Cells (5×10^6) were suspended in 300 μL of cytoplasmic buffer (HEPES 10 mM, KCl 10 mM, EDTA 1 mM, EGTA 1 mM, DTT 1 mM). After 20 min of incubation on ice, the mixture was passed 5 times through a 25-G syringe and then centrifuged briefly to obtain the cytoplasmic supernatant.
The nuclear pellet was suspended in 40-60 μL of nuclear buffer (cytoplasmic buffer+10% glycerol), incubated with shaking at 4° C. for 15 min, and centrifuged. The supernatant was collected as a nuclear fraction.
Cell extracts were separated by SDS-polyacrylamide gel electrophoresis (SDS-PAGE), transferred to a nitrocellulose membrane, and subjected to immunoblot with primary and secondary antibodies, as listed in table 1.

MyLa cells [13] = experiment: FACS analysis with annexin V and PI staining (apoptosis), MyLa cells; conditions: SAHA 10 μM or AN-7 300 μM
Description: as §8

Structure (SMILES)	percentage of repaired damage (γH2AX foci) [1] [%]	damage repair (DNA breaks, mean tail moment) (MyLa cells [2])	IC50 (Hut78 cells [3]) [nM]	repair of DNA breaks (mean tail moment) (Hut78 cells [4])	IC50 (NPBL; Homo sapiens, 72 h, read-out: IC50 single treatment Dox) [nM]	IC50 [5] [nM]	IC50 (MyLa cells [6]; read-out: IC50 single treatment Dox) [nM]	induction and clearance of p-KAP1 [7]	induction and clearance of γH2AX [7]	expression of NBS1, Mre11, Rad51 and DNA-PK [8]	expression of NBS1 and DNA-PK [9]	IC50 (MyLa cells [10]; 24 h, read-out: IC50 Long exposure) [nM]	IC50 (MyLa cells [10]; read-out: IC50 Short exposure) [nM]	NPBL survival at high doses (NPBL; high doses lethal to Hut78 and MyLa cells)	IC50 (MyLa cells [6]; read-out: IC50 single treatment (HDACI)) [nM]	apoptosis (Hut78 cells [11])	expression of pro-apoptotic proteins (western blot) [12]	HDAC1 expression level (HDAC1)	expression of acetylated H3 (Acetylated H3)	apoptosis (MyLa cells [13])
COc1cccc2c1C(=O)c1c(O)c3c(c(O)c1C2=O)C[C@@](O)(C(=O)CO)C[C@@H]3O[C@H]1C[C@H](N)[C@H](O)[C@H](C)O1 [Dox, doxorubicin, reference compound]	77.9	about 72%	27 ± 2.6	about 50%	399 ± 24.3	68.2 ± 10.8	19 ± 1	detected at 1-3 hours and declined after 24 hours	clearance of γH2AX observed at 24 h	did not affect the expression of DSB repair proteins	did not affect the expression of DSB repair proteins									
O=C(CCCCCCC(=O)Nc1ccccc1)NO [SAHA, Suberoylanilide hydroxamic acid, reference compound]												2300 ± 80	33000 ± 3700	lethal to all cells	2200 ± 100	about 60%	cleavage of caspase 3 and poly ADP-ribose polymerase (PARP) and the production of P21 and Bax	downregulated	induced	about 60%
